# Legend:
# Test in all cases: relative viability (nuclei count vs DMSO), 5 days (fraction); higher = more cells survive
# [1] = test system: NCI-H1793
# How it was run: (§1)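 Five library-drug doses in √10 steps were combined with a fixed anchor-drug dose, or a single drug was given alone, by pin tool to lung cancer cell lines in 1536-well plates the day after seeding. Nuclei were stained and counted after 5 days. Relative viability is the nuclei count in treated wells over that in vehicle wells, taken as the median of duplicate plates.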
# [2] = test system: NCI-H1395
# How it was run: as §1
# [3] = test system: NCI-H1755
# How it was run: as §1
# [4] = test system: COR-L23
# How it was run: as §1
# [5] = test system: COR-L 105
# How it was run: as §1
# [6] = test system: NCI-H650
# How it was run: as §1
# [7] = test system: HCC-15
# How it was run: as §1
# [8] = test system: NCI-H2009
# How it was run: as §1
# [9] = test system: HCC-366
# How it was run: as §1
# [10] = test system: PC-14
# How it was run: as §1
# [11] = test system: NCI-H23
# How it was run: as §1
# [12] = test system: NCI-H1915
# How it was run: as §1
# [13] = test system: NCI-H358
# How it was run: as §1
# [14] = test system: NCI-H2342
# How it was run: as §1
# [15] = test system: EMC-BAC-2
# How it was run: as §1
# [16] = test system: 201T
# How it was run: as §1
# [17] = test system: NCI-H2347
# How it was run: as §1
# [18] = test system: NCI-H1437
# How it was run: as §1
# [19] = test system: NCI-H2023
# How it was run: as §1
# [20] = test system: LC-2-ad
# How it was run: as §1
# [21] = test system: SK-MES-1
# How it was run: as §1
compound,measurement,setting,value
CCNC(=O)c1noc(-c2cc(C(C)C)c(O)cc2O)c1-c1ccc(CN2CCOCC2)cc1 [Luminespib] + Cc1cc(Nc2cc(N3CCN(C)CC3)nc(Sc3ccc(NC(=O)C4CC4)cc3)n2)n[nH]1 [Tozasertib] (partner 0.1 µM),relative viability,[1]; first compound 0.002 µM,0.345
same,relative viability,[1]; first compound 0.006325 µM,0.346
same,relative viability,[1]; first compound 0.02 µM,0.296
same,relative viability,[1]; first compound 0.06325 µM,0.307
same,relative viability,[1]; first compound 0.2 µM,0.13
same,relative viability,[2]; first compound 0.002 µM,0.783
same,relative viability,[2]; first compound 0.006325 µM,0.693
same,relative viability,[2]; first compound 0.02 µM,0.676
same,relative viability,[2]; first compound 0.06325 µM,0.386
same,relative viability,[2]; first compound 0.2 µM,0.322
same,relative viability,[3]; first compound 0.002 µM,0.585
same,relative viability,[3]; first compound 0.006325 µM,0.592
same,relative viability,[3]; first compound 0.02 µM,0.646
same,relative viability,[3]; first compound 0.06325 µM,0.214
same,relative viability,[3]; first compound 0.2 µM,0.192
same,relative viability,[4]; first compound 0.002 µM,0.237
same,relative viability,[4]; first compound 0.006325 µM,0.192
same,relative viability,[4]; first compound 0.02 µM,0.272
same,relative viability,[4]; first compound 0.06325 µM,0.0698
same,relative viability,[4]; first compound 0.2 µM,0.0682
same,relative viability,[5]; first compound 0.002 µM,0.37
same,relative viability,[5]; first compound 0.006325 µM,0.385
same,relative viability,[5]; first compound 0.02 µM,0.232
same,relative viability,[5]; first compound 0.06325 µM,0.465
same,relative viability,[5]; first compound 0.2 µM,0.191
same,relative viability,[6]; first compound 0.002 µM,0.805
same,relative viability,[6]; first compound 0.006325 µM,0.695
same,relative viability,[6]; first compound 0.02 µM,0.516
same,relative viability,[6]; first compound 0.06325 µM,0.199
same,relative viability,[6]; first compound 0.2 µM,0.0951
same,relative viability,[7]; first compound 0.002 µM,0.466
same,relative viability,[7]; first compound 0.006325 µM,0.441
same,relative viability,[7]; first compound 0.02 µM,0.444
same,relative viability,[7]; first compound 0.06325 µM,0.173
same,relative viability,[7]; first compound 0.2 µM,0.0953
same,relative viability,[8]; first compound 0.002 µM,0.766
same,relative viability,[8]; first compound 0.006325 µM,0.746
same,relative viability,[8]; first compound 0.02 µM,0.798
same,relative viability,[8]; first compound 0.06325 µM,0.28
same,relative viability,[8]; first compound 0.2 µM,0.114
same,relative viability,[9]; first compound 0.002 µM,0.13
same,relative viability,[9]; first compound 0.006325 µM,0.105
same,relative viability,[9]; first compound 0.02 µM,0.108
same,relative viability,[9]; first compound 0.06325 µM,0.228
same,relative viability,[9]; first compound 0.2 µM,0.0502
same,relative viability,[10]; first compound 0.002 µM,0.567
same,relative viability,[10]; first compound 0.006325 µM,0.547
same,relative viability,[10]; first compound 0.02 µM,0.326
same,relative viability,[10]; first compound 0.06325 µM,0.0498
same,relative viability,[10]; first compound 0.2 µM,0.0697
same,relative viability,[11]; first compound 0.002 µM,0.333
same,relative viability,[11]; first compound 0.006325 µM,0.351
same,relative viability,[11]; first compound 0.02 µM,0.345
same,relative viability,[11]; first compound 0.06325 µM,0.279
same,relative viability,[11]; first compound 0.2 µM,0.229
same,relative viability,[12]; first compound 0.002 µM,0.449
same,relative viability,[12]; first compound 0.006325 µM,0.518
same,relative viability,[12]; first compound 0.02 µM,0.377
same,relative viability,[12]; first compound 0.06325 µM,0.364
same,relative viability,[12]; first compound 0.2 µM,0.187
same,relative viability,[13]; first compound 0.002 µM,0.0938
same,relative viability,[13]; first compound 0.006325 µM,0.115
same,relative viability,[13]; first compound 0.02 µM,0.104
same,relative viability,[13]; first compound 0.06325 µM,0.0661
same,relative viability,[13]; first compound 0.2 µM,0.0636
same,relative viability,[14]; first compound 0.002 µM,0.578
same,relative viability,[14]; first compound 0.006325 µM,0.576
same,relative viability,[14]; first compound 0.02 µM,0.361
same,relative viability,[14]; first compound 0.06325 µM,0.589
same,relative viability,[14]; first compound 0.2 µM,0.334
same,relative viability,[15]; first compound 0.002 µM,0.345
same,relative viability,[15]; first compound 0.006325 µM,0.261
same,relative viability,[15]; first compound 0.02 µM,0.28
same,relative viability,[15]; first compound 0.06325 µM,0.342
same,relative viability,[15]; first compound 0.2 µM,0.299
same,relative viability,[16]; first compound 0.002 µM,0.988
same,relative viability,[16]; first compound 0.006325 µM,0.907
same,relative viability,[16]; first compound 0.02 µM,0.665
same,relative viability,[16]; first compound 0.06325 µM,0.89
same,relative viability,[16]; first compound 0.2 µM,0.849
same,relative viability,[17]; first compound 0.002 µM,0.592
same,relative viability,[17]; first compound 0.006325 µM,0.407
same,relative viability,[17]; first compound 0.02 µM,0.471
same,relative viability,[17]; first compound 0.06325 µM,0.269
same,relative viability,[17]; first compound 0.2 µM,0.198
same,relative viability,[18]; first compound 0.002 µM,0.385
same,relative viability,[18]; first compound 0.006325 µM,0.359
same,relative viability,[18]; first compound 0.02 µM,0.497
same,relative viability,[18]; first compound 0.06325 µM,0.508
same,relative viability,[18]; first compound 0.2 µM,0.238
same,relative viability,[19]; first compound 0.002 µM,0.395
same,relative viability,[19]; first compound 0.006325 µM,0.389
same,relative viability,[19]; first compound 0.02 µM,0.343
same,relative viability,[19]; first compound 0.06325 µM,0.0657
same,relative viability,[19]; first compound 0.2 µM,0.0748
same,relative viability,[20]; first compound 0.002 µM,0.482
same,relative viability,[20]; first compound 0.006325 µM,0.493
same,relative viability,[20]; first compound 0.02 µM,0.414
same,relative viability,[20]; first compound 0.06325 µM,0.258
same,relative viability,[20]; first compound 0.2 µM,0.251
same,relative viability,[21]; first compound 0.002 µM,0.822
same,relative viability,[21]; first compound 0.006325 µM,0.849
same,relative viability,[21]; first compound 0.02 µM,1.01
same,relative viability,[21]; first compound 0.06325 µM,0.144
same,relative viability,[21]; first compound 0.2 µM,0.159
